Consider 17 sequences from patent US7968098B2, “HLA-A24-binding KIF-derived peptide” (Kurume University, priority 2006, dated 2011).

This experiment relates to anti-peptide immunoglobulin G (IgG) in plasma. The experiment in a line: Anti-peptide IgG in plasma measured by the Luminex system. It is filed as binding, human. The settings on record: for Positive cases/total cases, Patients: Table 3, IgGs reactive to peptide in plasma of glioma patients; for Positive cases/total cases, Healthy donors: Table 3, IgGs reactive to peptide in plasma of healthy donors; for Positive cases/total cases, Total: Table 3, patients plus healthy donors; for Total (IgG-positive cases/total cases): positive = >1.25 times no peptide control. The method, then: The levels of anti-peptide immunoglobulin G (IgG) were measured by the Luminex™ system as previously reported (Komatsu N et al, Scand J Clin Invest 2004; 64: 1-11). In brief, plasma was incubated with 25 μl of peptide-coupled color-coded beads (Luminex Corp., Austin, Tex., USA) for 2 h at room temperature on a plate shaker. After incubation, the mixture was washed with a vacuum manifold apparatus and incubated with 100 μl of biotinylated goat anti-human IgG (BA-3080, Vector Laboratories, Burlingame, Calif., USA) for 1 h at room temperature. The plate was then washed, and 100 μl of streptavidin-PE (S-866, Molecular Probes, Eugene, Oreg., USA) was added to each well and was incubated for 30 min at room temperature on a plate shaker. The bound beads were washed three times followed by the addition of 100 μl of Tween-PBS to each well. Fifty μl of each sample was then examined using the Luminex™ system.
Next, the abilities of the KIF-derived peptides to be recognized by IgGs of glioma patients were examined, because IgGs reactive to CTL-directed peptides are detectable in the plasma of patients with different types of cancer (Nakatsura T et al, Eur J Immunol 32: 826-836, 2002), along with that levels of IgG well correlated with clinical responses of patients who received peptide vaccination as reported previously (Mine T et al, Clin Cancer Res 10: 929-937, 2004; Yajima N et al, Clin Cancer Res 11: 5900-5911, 2005). IgGs reactive to a corresponding peptide were judged to be significant when the immunofluorescence intensity in 1:100-diluted plasma exceeded 1.25 times that of the control samples with no peptides. […] Based on these findings, these 8 KIF peptides (3 for KIF1C, 3 for KIF3C, and 2 for KIF21B) were the focus of the following experiments.

Where [1] appears, read: Healthy donor 1, 1:100-diluted plasma.
The mark [2] stands for this setting: Healthy donor 2, 1:100-diluted plasma.
Where [3] appears, read: Healthy donor 3, 1:100-diluted plasma.
Setting [4] is: Healthy donor 4, 1:100-diluted plasma.
The mark [5] stands for this setting: Healthy donor 5, 1:100-diluted plasma.
[6] abbreviates: Healthy donor 6, 1:100-diluted plasma.
Setting [7] is: Healthy donor 7, 1:100-diluted plasma.
Setting [8] is: Healthy donor 8, 1:100-diluted plasma.
Where [9] appears, read: Healthy donor 9, 1:100-diluted plasma.
Where [10] appears, read: glioma Patient 1, 1:100-diluted plasma.
Where [11] appears, read: glioma Patient 2, 1:100-diluted plasma.
[12] abbreviates: glioma Patient 3, 1:100-diluted plasma.
Setting [13] is: glioma Patient 4, 1:100-diluted plasma.
Setting [14] is: glioma Patient 5, 1:100-diluted plasma.
The mark [15] stands for this setting: glioma Patient 6, 1:100-diluted plasma.
Setting [16] is: glioma Patient 7, 1:100-diluted plasma.
Setting [17] is: glioma Patient 8, 1:100-diluted plasma.
[18] abbreviates: glioma Patient 9, 1:100-diluted plasma.
[19] abbreviates: glioma Patient 10, 1:100-diluted plasma.

Consider AFIPGRPML (KIF21B 670-678 peptide), for which the “Positive cases/total cases, Patients” value is given as 2/10; the “Positive cases/total cases, Healthy donors” value is reported as 2/10; the “Positive cases/total cases, Total” value is reported as 4/20.

As for AFIPGRPMLL (KIF21B 670-679 peptide), the “Positive cases/total cases, Patients” value is 2/10; the “Positive cases/total cases, Healthy donors” value is 2/10; the “Positive cases/total cases, Total” value is recorded as 4/20.

As to CYEVALADF (KIF1C 756-764 peptide), the “Positive cases/total cases, Patients” value is 0/10; the “Positive cases/total cases, Healthy donors” value is on record as 1/10; the “Positive cases/total cases, Total” value is 1/20. This sequence also showed an Immunofluoresence intensity under setting [1] of 87.3. The sequence also displayed an Immunofluoresence intensity under setting [2] of 14.0. This sequence also showed an Immunofluoresence intensity under setting [3] of 46.8. Moreover, the Immunofluoresence intensity under setting [4] was determined as 20.0. The sequence also registered an Immunofluoresence intensity under setting [5] of 40.3. In addition, under setting [6], the Immunofluoresence intensity came out at 47.5. Under setting [7], this sequence yielded an Immunofluoresence intensity of 196.0. Besides, the Immunofluoresence intensity under setting [8] amounted to 3893.5. In addition, the Immunofluoresence intensity under setting [9] worked out at 27.0. Also, the “Total (IgG-positive cases/total cases)” value (Table 2, glioma patients) is given as 0/10. Besides, the “Total (IgG-positive cases/total cases)” value (Table 2, healthy donors) is 1/10. This sequence returned an Immunofluoresence intensity under setting [10] of 36.5. Besides, under setting [11], the Immunofluoresence intensity is given as 45.0. Under setting [12], this sequence came in with an Immunofluoresence intensity of 28.8. Under setting [13], this sequence showed an Immunofluoresence intensity of 11.5. This sequence showed an Immunofluoresence intensity under setting [14] of 58.0. Under setting [15], this sequence returned an Immunofluoresence intensity of 185.8. For the same sequence, the Immunofluoresence intensity under setting [16] was 40.3. Under setting [17], this sequence yielded an Immunofluoresence intensity of 6.5. In addition, under setting [18], the Immunofluoresence intensity stood at 7.5. The same sequence returned an Immunofluoresence intensity under setting [19] of 658.0.

For the sequence EYIRVRQDL (KIF3C 607-615 peptide), the “Positive cases/total cases, Patients” value was 2/10; the “Positive cases/total cases, Healthy donors” value is 3/10; the “Positive cases/total cases, Total” value is reported as 5/20.

For GYLIIENFI (KIF3C 629-637 peptide), the “Positive cases/total cases, Patients” value is on record as 0/10; the “Positive cases/total cases, Healthy donors” value is 1/10; the “Positive cases/total cases, Total” value is given as 1/20.

As to IYQEEIRDL (KIF3C 147-155 peptide), the “Positive cases/total cases, Patients” value is reported as 0/10; the “Positive cases/total cases, Healthy donors” value is on record as 1/10; the “Positive cases/total cases, Total” value is on record as 1/20.

As for IYQEEIRDLL (KIF3C 147-156 peptide), the “Positive cases/total cases, Patients” value was 0/10; the “Positive cases/total cases, Healthy donors” value is on record as 1/10; the “Positive cases/total cases, Total” value is given as 1/20.

KYCSHSGLVF (KIF21B 473-482 peptide): the “Positive cases/total cases, Patients” value was 2/10; the “Positive cases/total cases, Healthy donors” value is reported as 2/10; the “Positive cases/total cases, Total” value is listed as 4/20.

On to NYEETLSTL (KIF1C 331-339 peptide), for which the “Positive cases/total cases, Patients” value is given as 0/10; the “Positive cases/total cases, Healthy donors” value was 0/10; the “Positive cases/total cases, Total” value is on record as 0/20. Further, the Immunofluoresence intensity under setting [1] stood at 70.0. Under setting [2], this sequence displayed an Immunofluoresence intensity of 13.5. Also, the Immunofluoresence intensity under setting [3] was determined as 29.0. Under setting [4], the Immunofluoresence intensity turned out to be 16.5. The sequence further showed an Immunofluoresence intensity under setting [5] of 35.0. The sequence also came in with an Immunofluoresence intensity under setting [6] of 40.0. Under setting [7], this sequence returned an Immunofluoresence intensity of 233.0. The sequence also came in with an Immunofluoresence intensity under setting [8] of 4133.0. Under setting [9], this sequence yielded an Immunofluoresence intensity of 22.5. The same sequence had an Immunofluoresence intensity (Healthy donor 10, 1:100-diluted plasma) of 62.5. The “Total (IgG-positive cases/total cases)” value (Table 2, glioma patients) is reported as 0/10. For the same sequence, the “Total (IgG-positive cases/total cases)” value (Table 2, healthy donors) was 0/10. Further, the Immunofluoresence intensity under setting [10] came out at 33.5. In addition, the Immunofluoresence intensity under setting [11] is 39.5. The sequence further returned an Immunofluoresence intensity under setting [12] of 22.0. Under setting [13], this sequence came in with an Immunofluoresence intensity of 10.5. For the same sequence, the Immunofluoresence intensity under setting [14] is listed as 53.5. The sequence further returned an Immunofluoresence intensity under setting [15] of 86.5. Also, the Immunofluoresence intensity under setting [16] amounted to 35.5. Under setting [17], this sequence came in with an Immunofluoresence intensity of 8.5. This sequence registered an Immunofluoresence intensity under setting [18] of 5.5. This sequence came in with an Immunofluoresence intensity under setting [19] of 485.4.

Take NYVPGLTPCL (KIF21B 731-740 peptide): the “Positive cases/total cases, Patients” value was 1/10; the “Positive cases/total cases, Healthy donors” value was 1/10; the “Positive cases/total cases, Total” value is 2/20.

Regarding QYLVRASYL (KIF3C 137-145 peptide), the “Positive cases/total cases, Patients” value is on record as 2/10; the “Positive cases/total cases, Healthy donors” value was 1/10; the “Positive cases/total cases, Total” value is recorded as 3/20.

Consider RFVPPHDCKL (KIF1C 968-977 peptide), for which the “Positive cases/total cases, Patients” value is on record as 4/10; the “Positive cases/total cases, Healthy donors” value was 5/10; the “Positive cases/total cases, Total” value was 9/20. This sequence also showed an Immunofluoresence intensity under setting [1] of 117.0. This sequence returned an Immunofluoresence intensity under setting [2] of 23.5. The same sequence had an Immunofluoresence intensity under setting [4] of 33.0. In addition, the Immunofluoresence intensity under setting [5] is on record as 58.5. In addition, the Immunofluoresence intensity under setting [9] is 32.3. Moreover, the “Total (IgG-positive cases/total cases)” value (Table 2, glioma patients) is 4/10. For the same sequence, where the note is “Table 2, healthy donors”, the “Total (IgG-positive cases/total cases)” value is recorded as 5/10. Under setting [10], this sequence displayed an Immunofluoresence intensity of 77.0. Also, the Immunofluoresence intensity under setting [13] was found to be 27.0. The sequence further gave an Immunofluoresence intensity under setting [14] of 97.0. The sequence also showed an Immunofluoresence intensity under setting [16] of 74.8. Under setting [17], the Immunofluoresence intensity is on record as 12.5. Also, the Immunofluoresence intensity under setting [18] came to 19.5.

On to RYRAENIMFL (KIF3C 702-711 peptide), for which the “Positive cases/total cases, Patients” value is listed as 2/10; the “Positive cases/total cases, Healthy donors” value is 5/10; the “Positive cases/total cases, Total” value is recorded as 7/20.

For SYDESLSTL (KIF3C 347-355 peptide), the “Positive cases/total cases, Patients” value is 0/10; the “Positive cases/total cases, Healthy donors” value is 0/10; the “Positive cases/total cases, Total” value is 0/20.

For the sequence VYIKDLSSF (KIF3C 174-182 peptide), the “Positive cases/total cases, Patients” value is listed as 1/10; the “Positive cases/total cases, Healthy donors” value is listed as 2/10; the “Positive cases/total cases, Total” value is reported as 3/20.

For the sequence VYQIPQRRRL (KIF1C 725-734 peptide), the “Positive cases/total cases, Patients” value is recorded as 3/10; the “Positive cases/total cases, Healthy donors” value is recorded as 5/10; the “Positive cases/total cases, Total” value was 8/20. This sequence registered an Immunofluoresence intensity under setting [1] of 99.5. For the same sequence, under setting [2], the Immunofluoresence intensity is on record as 19.5. In addition, under setting [3], the Immunofluoresence intensity is 66.8. Further, under setting [4], the Immunofluoresence intensity was determined as 30.5. Under setting [5], this sequence showed an Immunofluoresence intensity of 52.5. Moreover, for the setting “Table 2, glioma patients”, the “Total (IgG-positive cases/total cases)” value is on record as 4/10. Further, the “Total (IgG-positive cases/total cases)” value (Table 2, healthy donors) is on record as 5/10. For the same sequence, the Immunofluoresence intensity under setting [10] was determined as 65.5. Besides, the Immunofluoresence intensity under setting [11] was found to be 85.3. Besides, under setting [12], the Immunofluoresence intensity stood at 61.3. The sequence also showed an Immunofluoresence intensity under setting [13] of 19.5. In addition, the Immunofluoresence intensity under setting [14] is reported as 98.5. The Immunofluoresence intensity under setting [17] is on record as 10.0. Also, under setting [18], the Immunofluoresence intensity is 9.3.

On to VYRDIGEEML (KIF1C 73-82 peptide), for which the “Positive cases/total cases, Patients” value is reported as 3/10; the “Positive cases/total cases, Healthy donors” value is 6/10; the “Positive cases/total cases, Total” value is on record as 9/20. Moreover, the Immunofluoresence intensity under setting [2] was found to be 19.5. For the same sequence, the Immunofluoresence intensity under setting [3] is reported as 64.5. Also, the Immunofluoresence intensity under setting [4] was determined as 29.5. The sequence also yielded an Immunofluoresence intensity under setting [5] of 50.0. Further, the “Total (IgG-positive cases/total cases)” value (Table 2, glioma patients) was 3/10. For the same sequence, the “Total (IgG-positive cases/total cases)” value (Table 2, healthy donors) is 6/10. Under setting [10], this sequence gave an Immunofluoresence intensity of 57.8. Besides, the Immunofluoresence intensity under setting [11] stood at 80.5. This sequence also yielded an Immunofluoresence intensity under setting [12] of 46.8. Besides, the Immunofluoresence intensity under setting [13] turned out to be 17.5. This sequence also showed an Immunofluoresence intensity under setting [16] of 68.5. The same sequence gave an Immunofluoresence intensity under setting [17] of 11.5. The same sequence displayed an Immunofluoresence intensity under setting [18] of 11.0.
